In US20250170154A1 (GreenStone Biosciences, Inc., priority 2023, published 2025):
Read-outs that look alike come from different tables or passages of the source.

How the values were obtained:
16 month-old mice = 16 month-old mice with 7-day osmotic pumps; assay type: in vivo, mouse
Description: Three groups of 16 month-old mice were implanted with 7-day osmotic pumps dispensing vehicle, 0.24 mg/Kg/day, and 2.4 mg/Kg/day of compound 2. All three groups of animals lost ˜1% of body weight over the 7 days.

[1] = tested on: mice with DSS-induced colitis; test: DSS-induced colitis in mice; assay type: in vivo, mouse; conditions: 50 mg/Kg daily by gavage
Description: Mice, placed on a soy-free diet for 14 days, were administered 3.5% DSS in their drinking water for 8 days to induce colitis, and either untreated or treated with compound 2 at 50 mg/Kg daily by gavage from day 1 (prevention) or from day 5 (intervention); and monitored for clinical indicators of colitis, including stool consistency, rectal bleeding, and changes in body weight. […] The genistein phosphate derivatives of this invention are therefore expected to be useful for the treatment of subjects with inflammatory bowel disease, ulcerative colitis, and Crohn's disease.

[2] = Intestinal stability, mouse intestinal S9; assay type: in vitro ADME; conditions: intestinal S9 fraction
Description: The stability of compounds 1 and 2, and the control compound 7-hydroxycoumarin, were measured using human, rat, and mouse intestinal S9 fractions (Xenotech). Test compound working solutions were prepared by diluting 5 μL of 10 mM stock solutions in DMSO with 495 μL AN. S9 solutions were prepared by diluting the obtained S9 solutions to 1.0 mg/mL in 100 mM potassium phosphate buffer at pH 7.4 containing 10 mM D-saccharic acid-1,4-lactone. An Apricot automation workstation was used to add 100 μL/well of S9 solution to all reaction plates (Blank, T0, T5, T15, T30, T45, T60 and NCF60); 2 μL/well of compound working solutions were added to all 96-well reaction plates except the blank (T0, T5, T15, T30, T45, T60, and NCF60); 600 μL/well of stop solution (4° C. ACN containing 200 ng/mL tolbutamide and 200 ng/mL labetalol as internal standards) was added to the T0 reaction plate; all plates were pre-incubated at 37° C. for 10 minutes; a cofactor regenerating system (98 μL/well) was added, excluding the NCF60 plate which instead received 98 μL/well of 100 mM potassium phosphate buffer. All plates were then incubated at 37° C. To terminate reactions, 600 μL/well of stop solution was applied at specific end time points. After sealing and a 10-minute shaking, plates were centrifuged at 4000 rpm and 4° C. for 20 minutes. Concurrently, 300 μL/well of HPLC grade water was loaded onto eight new 96-well bioanalysis plates. Post-centrifugation, 100 μL supernatant from each reaction plate was transferred to its corresponding bioanalysis plate, shaken for 10 minutes, and then subjected to LC-MS/MS analysis (Shimadzu LC-40D LC system coupled to a Sciex Qtrap 6500 Plus mass spectrometer, using both positive and negative ion modes).

Myh6-Cre:FLNC^wt/F mouse = test: FLNC knockout model, echocardiography; assay type: in vivo; conditions: 50 mg/Kg/day by gavage for 6 weeks
Description: The LMNA^H222P/H222P mouse is a well-established model for studying dilated cardiomyopathy and heart failure, with cardiac dysfunction typically beginning to manifest at around 16 weeks of age. In this study, 16-week-old LMNA^H222P/H222P mice underwent baseline echocardiography prior to treatment. Compound 2 was then administered continuously for 4 weeks using osmotic pumps, with DMSO as the vehicle control. At the end of the treatment period, echocardiography was performed again to assess the impact of compound 2 on cardiac function compared to the control group. […] In a FLNC knockout model using the Myh6-Cre:FLNC^wt/F mouse, 16-week-old mice underwent baseline echocardiography, were treated with compound 2 at 50 mg/Kg/day or vehicle by gavage for 6 weeks, and underwent echocardiography to assess the change in cardiac function. […] The genistein phosphate derivatives of this invention are therefore expected to be useful for the treatment of subjects with dilated cardiomyopathy.

[3] = Thermodynamic solubility in FaSSIF; assay type: physicochemical; conditions: thermodynamic from solid, room temperature, 24 hours shaking
Description: After shaking, the samples were centrifuged at 25° C. for 20 minutes at 4000 rpm. Filtrates were prepared using the Whatman Mini-UniPrep Syringeless Filter Device (PTFE filter media with polypropylene housing, pore size 0.45 μm) from Cytiva, and dilutions were performed as required. Quantification of all samples was carried out using an LC-UV system.

[4] = Approximate solubility in selected solvents by visual observation; assay type: physicochemical; conditions: thermodynamic from solid
Description: Solubility testing of compound 2 was carried out by adding 20 μL aliquots (to a maximum of 1 mL) of selected solvents (water, methanol, DCM, and THF) to about 5 mg samples of compound 2 at 25 C with vortexing and sonication; and the approximate solubility determined by visual observation. Similar testing was carried out at 50 C, using about 10 mg samples of compound 2.

[5] = Stability in simulated gastric fluid (SGF); assay type: in vitro ADME; conditions: SGF pH 1.2, 37° C., 2 μM
Description: The stability of compounds 1 to 4, and the control compound omeprazole, were measured in simulated gastric fluid (SGF: 0.2% w/v sodium chloride, 0.7% v/v hydrochloric acid, and 0.32% w/v pepsin in deionized water, pH 1.2±0.05). Stock solutions of the compounds (10 mM) were diluted to 200 μM in DMSO, then duplicate 2 μL aliquots added to 96-well plates for time points 0, 1, 2, 6, and 24 hours. SGF (198 μL) was added to all wells except those for time 0, to give a starting compound concentration of 2 μM; and the samples were incubated at 37° C. with agitation at 600 rpm for the prescribed times. After incubation, 200 μL of each sample was extracted and mixed with 400 μL cold ACN containing 200 ng/mL tolbutamide and labetalol as internal standards. The samples were centrifuged at […] for 20 minutes at 4° C., and the supernatants (60 μL) each diluted with purified water (180 μL) for LC/MS/MS analysis. The percentage of the test compound remaining at each time point was calculated based on the ratio of the peak area of the analyte to the internal standards.

[6] = 0.24 and 2.4 mg/Kg/day, 7-day osmotic pumps
[7] = both prevention and intervention modes

SMILES: O=c1c(-c2ccc(O)cc2)coc2cc(OCOP(=O)(O)O)cc(O)c12 [Compound 2, ((5-Hydroxy-3-(4-hydroxyphenyl)-4-oxo-4H-chromen-7-yl)oxy)methyl dihydrogen phosphate]
- fasting blood glucose relative to the control group (16 month-old mice; 2.4 mg/Kg/day group): significant decrease
- body weight lost over the 7 days (16 month-old mice; 0.24 and 2.4 mg/Kg/day groups (same as vehicle group)): ~1%
- IL-13 blood levels (16 month-old mice; [6]): reduced in a dose-dependent manner
- Leptin blood levels (16 month-old mice; [6]): reduced in a dose-dependent manner
- fasting blood glucose relative to the control group (16 month-old mice; both treatment groups, 0.24 and 2.4 mg/Kg/day, 7-day osmotic pumps): lowered
- weight loss ([1]; both prevention (from day 1) and intervention (from day 5) modes, 3.5% DSS): reduced
- colon length [1, 7]: improved
- diarrhea [1, 7]: reduced
- histology of the colon [1, 7]: histological improvement
- rectal bleeding [1, 7]: reduced
- half-life at 1 µM ([2]; pH 7.4): 1.13 h
- microsomal CLint at 1 µM ([2]; pH 7.4, read-out: intrinsic clearance rate): 20.3 µL/min/mg
- contractility (fractional shortening) from baseline (Myh6-Cre:FLNC^wt/F mouse): statistically significantly improved
- contractility over vehicle-treated animals (Myh6-Cre:FLNC^wt/F mouse): improved
- left ventricular end-diastolic diameter (Myh6-Cre:FLNC^wt/F mouse; over vehicle-treated animals): reduced
- left ventricular end-systolic diameter (Myh6-Cre:FLNC^wt/F mouse; over vehicle-treated animals): reduced
- solubility at 24 h ([3]; read-out: Solubility): 7.82 mM
- solubility at 24 h ([3]; read-out: Solubility (μg/mL)): 2970 µg/mL
- solubility ([4]; 25 °C, organic solvent or mixture, THF, both 25 and 50° C., read-out: solubility in THF): 125000 to 250000 µg/mL
- solubility ([4]; 25 °C, organic solvent or mixture, methanol, both 25 and 50° C., read-out: solubility in methanol): > 250000 µg/mL
- solubility ([4]; organic solvent or mixture, DCM, 25° C., read-out: solubility in DCM): < 5000 µg/mL
- solubility ([4]; water, 25° C., approximate, visual observation, read-out: solubility in water): < 5000 µg/mL
- solubility ([4]; water, 50° C., approximate, visual observation, read-out: solubility in water): ~5000 µg/mL
- Percentage remaining at time: 1 hour ([5]; 1 hour): 100%
- Percentage remaining at time: 2 hours ([5]; 2 hours): 104%
- Percentage remaining at time: 6 hours ([5]; 6 hours): 116%
- Percentage remaining at time: 24 hours ([5]; 24 hours): 113%
- Percentage remaining at time: 0 ([5]; time 0): 100%
